Measured values taken from the kinase profiling compilation of Christmann-Franck et al. (2016).

Columns and labels:
Experiment in all cases: KINOMEscan competition binding
Conditions in all cases: compound 10.0 µM
RIOK3 (human) = RIOK3 (human) (UniProt O14730)
STK17A (human) = STK17A (human) (UniProt Q9UEE5)
PIP5K1A (human) = PIP5K1A (human) (UniProt Q99755)
RPS6KA2 KD2 (human) = RPS6KA2 KD2 (human) (UniProt Q15349)
AURKB (human) = AURKB (human) (UniProt Q96GD4)
MAP4K4 (human) = MAP4K4 (human) (UniProt O95819)
PHKG2 (human) = PHKG2 (human) (UniProt P15735)
CHUK (human) = CHUK (human) (UniProt O15111)
PRKD3 (human) = PRKD3 (human) (UniProt O94806)
BMP2K (human) = BMP2K (human) (UniProt Q9NSY1)
[1] = tested on: KIT (human), P10721 [V559D]
STK24 (human) = STK24 (human) (UniProt Q9Y6E0)
MYLK4 (human) = MYLK4 (human) (UniProt Q86YV6)
[2] = tested on: FLT3 (human), P36888 [D835Y]
RIPK2 (human) = RIPK2 (human) (UniProt O43353)
PIP4K2B (human) = PIP4K2B (human) (UniProt P78356)
Sequence of PIP4K2B (human) (P78356 whole entry, looked up): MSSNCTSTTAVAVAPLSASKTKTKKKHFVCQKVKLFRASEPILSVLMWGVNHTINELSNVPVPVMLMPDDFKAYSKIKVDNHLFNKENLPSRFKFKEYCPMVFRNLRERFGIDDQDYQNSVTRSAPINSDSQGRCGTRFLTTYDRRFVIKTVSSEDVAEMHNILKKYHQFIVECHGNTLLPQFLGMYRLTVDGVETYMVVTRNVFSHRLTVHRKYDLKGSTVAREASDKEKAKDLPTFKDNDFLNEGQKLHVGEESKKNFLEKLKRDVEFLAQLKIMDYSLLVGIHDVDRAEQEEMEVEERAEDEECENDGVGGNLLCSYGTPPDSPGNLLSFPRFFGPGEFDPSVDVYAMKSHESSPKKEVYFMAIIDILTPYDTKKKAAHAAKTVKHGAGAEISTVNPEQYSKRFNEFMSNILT

CSNK1G1 (human) = CSNK1G1 (human) (UniProt Q9HCP0)
RPS6KA6 KD2 (human) = RPS6KA6 KD2 (human) (UniProt Q9UK32)
BRSK2 (human) = BRSK2 (human) (UniProt Q8IWQ3)
Sequence of BRSK2 (human) (Q8IWQ3 whole entry, looked up): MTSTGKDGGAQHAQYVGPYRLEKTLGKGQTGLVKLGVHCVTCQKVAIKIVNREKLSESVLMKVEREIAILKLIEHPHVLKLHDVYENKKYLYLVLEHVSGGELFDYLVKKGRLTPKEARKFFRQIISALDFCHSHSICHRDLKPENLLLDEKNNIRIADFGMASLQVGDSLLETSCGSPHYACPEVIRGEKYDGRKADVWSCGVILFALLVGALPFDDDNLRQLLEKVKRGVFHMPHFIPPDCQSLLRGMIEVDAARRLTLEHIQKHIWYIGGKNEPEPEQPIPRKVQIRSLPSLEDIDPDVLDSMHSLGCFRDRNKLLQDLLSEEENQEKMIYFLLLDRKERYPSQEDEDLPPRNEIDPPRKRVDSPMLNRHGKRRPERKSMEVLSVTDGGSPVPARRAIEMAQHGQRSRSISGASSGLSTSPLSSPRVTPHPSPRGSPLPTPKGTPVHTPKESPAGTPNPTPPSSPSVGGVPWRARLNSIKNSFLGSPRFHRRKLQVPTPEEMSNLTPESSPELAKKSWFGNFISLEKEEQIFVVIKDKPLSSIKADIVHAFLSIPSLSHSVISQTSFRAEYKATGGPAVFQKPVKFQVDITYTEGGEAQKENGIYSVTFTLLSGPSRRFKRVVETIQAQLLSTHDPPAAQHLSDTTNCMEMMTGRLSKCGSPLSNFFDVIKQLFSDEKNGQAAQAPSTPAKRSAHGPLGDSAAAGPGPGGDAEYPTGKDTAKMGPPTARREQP

TAOK3 (human) = TAOK3 (human) (UniProt Q9H2K8)
GSK3A (human) = GSK3A (human) (UniProt P49840)
SRPK2 (human) = SRPK2 (human) (UniProt P78362)
Sequence of SRPK2 (human) (P78362 whole entry, looked up): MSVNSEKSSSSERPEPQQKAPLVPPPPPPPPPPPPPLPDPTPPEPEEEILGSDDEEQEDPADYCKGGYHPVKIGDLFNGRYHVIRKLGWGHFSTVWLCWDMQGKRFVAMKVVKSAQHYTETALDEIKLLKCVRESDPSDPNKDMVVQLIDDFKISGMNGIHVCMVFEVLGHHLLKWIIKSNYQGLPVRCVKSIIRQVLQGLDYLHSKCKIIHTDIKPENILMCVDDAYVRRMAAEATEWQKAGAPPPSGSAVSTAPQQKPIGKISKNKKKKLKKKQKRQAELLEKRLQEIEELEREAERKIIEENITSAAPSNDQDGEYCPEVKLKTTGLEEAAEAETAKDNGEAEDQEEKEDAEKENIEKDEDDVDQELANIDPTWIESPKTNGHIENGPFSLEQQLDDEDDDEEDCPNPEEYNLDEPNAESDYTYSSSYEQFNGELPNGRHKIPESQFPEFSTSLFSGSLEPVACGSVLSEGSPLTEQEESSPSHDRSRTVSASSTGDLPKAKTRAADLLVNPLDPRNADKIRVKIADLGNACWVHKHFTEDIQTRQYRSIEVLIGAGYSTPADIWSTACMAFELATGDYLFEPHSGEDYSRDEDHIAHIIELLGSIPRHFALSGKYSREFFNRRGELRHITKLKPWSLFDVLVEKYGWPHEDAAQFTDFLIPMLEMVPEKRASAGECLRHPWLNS

TGFBR2 (human) = TGFBR2 (human) (UniProt P37173)
PDGFRB (human) = PDGFRB (human) (UniProt P09619)
ACVR1 (human) = ACVR1 (human) (UniProt Q04771)
[3] = tested on: FLT3 (human), P36888 [ITD]
TTK (human) = TTK (human) (UniProt P33981)
Sequence of TTK (human) (P33981 whole entry, looked up): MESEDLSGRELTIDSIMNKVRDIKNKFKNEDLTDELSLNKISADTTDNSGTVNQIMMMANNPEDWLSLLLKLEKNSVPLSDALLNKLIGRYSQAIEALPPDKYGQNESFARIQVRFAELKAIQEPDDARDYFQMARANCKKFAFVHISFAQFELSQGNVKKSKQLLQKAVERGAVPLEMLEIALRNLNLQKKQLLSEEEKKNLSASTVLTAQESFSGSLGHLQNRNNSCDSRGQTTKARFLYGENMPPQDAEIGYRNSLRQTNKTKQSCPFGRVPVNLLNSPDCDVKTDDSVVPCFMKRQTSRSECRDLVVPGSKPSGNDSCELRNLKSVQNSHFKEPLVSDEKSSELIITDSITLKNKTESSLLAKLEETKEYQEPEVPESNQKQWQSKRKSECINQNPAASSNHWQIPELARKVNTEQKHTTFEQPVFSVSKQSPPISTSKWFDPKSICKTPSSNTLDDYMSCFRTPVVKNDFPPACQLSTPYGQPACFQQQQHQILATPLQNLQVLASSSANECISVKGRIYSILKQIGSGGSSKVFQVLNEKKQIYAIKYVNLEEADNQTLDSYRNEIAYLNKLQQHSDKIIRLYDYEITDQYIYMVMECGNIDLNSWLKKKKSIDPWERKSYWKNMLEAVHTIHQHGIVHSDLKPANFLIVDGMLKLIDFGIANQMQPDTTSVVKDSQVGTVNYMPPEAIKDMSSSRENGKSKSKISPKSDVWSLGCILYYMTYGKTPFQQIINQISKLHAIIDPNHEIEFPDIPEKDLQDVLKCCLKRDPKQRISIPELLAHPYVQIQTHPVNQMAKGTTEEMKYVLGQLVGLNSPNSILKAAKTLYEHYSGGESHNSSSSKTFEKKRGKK

STK33 (human) = STK33 (human) (UniProt Q9BYT3)
MAP4K2 (human) = MAP4K2 (human) (UniProt Q12851)
PIM2 (human) = PIM2 (human) (UniProt Q9P1W9)
Sequence of PIM2 (human) (Q9P1W9 whole entry, looked up): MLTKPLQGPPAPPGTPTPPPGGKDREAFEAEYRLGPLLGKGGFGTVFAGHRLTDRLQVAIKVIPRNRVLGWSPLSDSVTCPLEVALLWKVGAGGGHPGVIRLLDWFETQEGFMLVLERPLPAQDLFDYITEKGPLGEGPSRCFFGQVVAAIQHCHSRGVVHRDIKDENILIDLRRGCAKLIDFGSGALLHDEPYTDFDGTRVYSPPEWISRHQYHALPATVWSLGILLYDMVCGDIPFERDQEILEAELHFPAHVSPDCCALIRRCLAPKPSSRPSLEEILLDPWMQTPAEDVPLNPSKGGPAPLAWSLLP

BMPR1B (human) = BMPR1B (human) (UniProt O00238)
[4] = tested on: FLT3 (human), P36888 [D835H]
CSNK1D (human) = CSNK1D (human) (UniProt P48730)
SRPK3 (human) = SRPK3 (human) (UniProt Q9UPE1)
[5] = tested on: FLT3 (human), P36888 [N841I]
TNK1 (human) = TNK1 (human) (UniProt Q13470)
STK11 (human) = STK11 (human) (UniProt Q15831)
PLK4 (human) = PLK4 (human) (UniProt O00444)
CSNK1G3 (human) = CSNK1G3 (human) (UniProt Q9Y6M4)
Sequence of CSNK1G3 (human) (Q9Y6M4 whole entry, looked up): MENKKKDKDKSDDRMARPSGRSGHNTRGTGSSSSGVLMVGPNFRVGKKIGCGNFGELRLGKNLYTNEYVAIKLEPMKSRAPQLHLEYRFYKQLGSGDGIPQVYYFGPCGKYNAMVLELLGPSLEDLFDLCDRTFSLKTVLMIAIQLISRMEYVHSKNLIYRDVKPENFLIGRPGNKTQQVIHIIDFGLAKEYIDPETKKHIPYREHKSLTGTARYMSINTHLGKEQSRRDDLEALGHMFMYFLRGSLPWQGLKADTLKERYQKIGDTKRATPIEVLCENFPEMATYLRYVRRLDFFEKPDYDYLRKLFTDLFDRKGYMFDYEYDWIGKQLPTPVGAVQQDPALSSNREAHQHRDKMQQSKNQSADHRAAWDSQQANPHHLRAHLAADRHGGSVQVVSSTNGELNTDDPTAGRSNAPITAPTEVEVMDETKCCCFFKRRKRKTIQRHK

MAPK8 (human) = MAPK8 (human) (UniProt P45983)
DMPK (human) = DMPK (human) (UniProt Q09013)
MYLK3 (human) = MYLK3 (human) (UniProt Q32MK0)
Sequence of MYLK3 (human) (Q32MK0 whole entry, looked up): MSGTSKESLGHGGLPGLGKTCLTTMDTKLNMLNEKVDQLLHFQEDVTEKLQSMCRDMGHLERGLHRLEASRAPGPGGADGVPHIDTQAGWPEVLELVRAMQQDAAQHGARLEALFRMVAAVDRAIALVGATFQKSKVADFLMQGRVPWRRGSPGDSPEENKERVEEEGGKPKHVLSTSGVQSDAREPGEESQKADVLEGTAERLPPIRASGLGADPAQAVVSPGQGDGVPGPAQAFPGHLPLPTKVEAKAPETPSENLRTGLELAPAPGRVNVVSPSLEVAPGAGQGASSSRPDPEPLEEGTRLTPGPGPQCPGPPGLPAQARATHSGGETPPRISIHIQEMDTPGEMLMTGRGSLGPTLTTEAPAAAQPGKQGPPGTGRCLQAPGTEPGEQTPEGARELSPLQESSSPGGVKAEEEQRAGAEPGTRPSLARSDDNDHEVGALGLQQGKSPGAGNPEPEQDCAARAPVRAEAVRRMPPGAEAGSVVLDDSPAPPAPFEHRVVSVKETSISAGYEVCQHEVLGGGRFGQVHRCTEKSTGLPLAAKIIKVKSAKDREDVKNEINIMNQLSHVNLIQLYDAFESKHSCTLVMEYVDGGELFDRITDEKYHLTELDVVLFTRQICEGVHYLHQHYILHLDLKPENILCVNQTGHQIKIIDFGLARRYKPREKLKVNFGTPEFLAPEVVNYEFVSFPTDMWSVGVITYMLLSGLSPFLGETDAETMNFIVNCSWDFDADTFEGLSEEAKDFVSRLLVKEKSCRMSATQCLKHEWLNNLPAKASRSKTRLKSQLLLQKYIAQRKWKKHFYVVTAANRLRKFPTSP

Sequence of RPS6KA2 KD2 (human) (Q15349 whole entry, looked up): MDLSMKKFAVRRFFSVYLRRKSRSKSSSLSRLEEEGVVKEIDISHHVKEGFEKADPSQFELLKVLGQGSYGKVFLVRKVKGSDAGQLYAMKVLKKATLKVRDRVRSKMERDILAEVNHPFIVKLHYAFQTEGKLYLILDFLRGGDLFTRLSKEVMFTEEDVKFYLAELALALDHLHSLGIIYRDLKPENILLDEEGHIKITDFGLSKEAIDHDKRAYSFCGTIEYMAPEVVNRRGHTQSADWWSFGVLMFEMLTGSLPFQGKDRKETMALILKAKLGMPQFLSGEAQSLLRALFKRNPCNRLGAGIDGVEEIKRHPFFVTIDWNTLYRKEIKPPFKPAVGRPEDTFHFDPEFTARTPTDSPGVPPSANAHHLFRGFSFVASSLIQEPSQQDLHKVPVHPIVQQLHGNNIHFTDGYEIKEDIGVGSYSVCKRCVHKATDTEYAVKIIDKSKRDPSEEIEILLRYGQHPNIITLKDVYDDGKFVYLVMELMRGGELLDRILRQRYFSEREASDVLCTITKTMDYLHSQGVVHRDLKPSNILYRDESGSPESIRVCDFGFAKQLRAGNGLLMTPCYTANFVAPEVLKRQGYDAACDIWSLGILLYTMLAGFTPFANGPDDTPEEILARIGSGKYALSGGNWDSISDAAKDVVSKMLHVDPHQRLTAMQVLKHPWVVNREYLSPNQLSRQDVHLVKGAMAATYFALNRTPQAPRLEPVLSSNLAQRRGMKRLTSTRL

`COc1cc(N2CCN(C)CC2)ccc1Nc1ncc2c(n1)N(C)c1ccccc1N(C)C2=O` was tested, and the kinase still bound, per cent of control (RIOK3 (human)) was 77%, the kinase still bound, per cent of control (STK17A (human)) was 100% and the kinase still bound, per cent of control (PIP5K1A (human)) was 95%. The kinase still bound, per cent of control (RPS6KA2 KD2 (human)) was 97%, the kinase still bound, per cent of control (AURKB (human)) was 100% and the kinase still bound, per cent of control (MAP4K4 (human)) was 85%. For the same compound, the kinase still bound, per cent of control (PHKG2 (human)) was 15%, the kinase still bound, per cent of control (CHUK (human)) was 60% and the kinase still bound, per cent of control (PRKD3 (human)) was 85%. It also gave a kinase still bound, per cent of control (BMP2K (human)) of 100%, a kinase still bound, per cent of control [1] of 95% and a kinase still bound, per cent of control (STK24 (human)) of 100%. It also gave a kinase still bound, per cent of control (MYLK4 (human)) of 100%, a kinase still bound, per cent of control [2] of 75% and a kinase still bound, per cent of control (RIPK2 (human)) of 100%. For the same compound, the kinase still bound, per cent of control (PIP4K2B (human)) was 91%, the kinase still bound, per cent of control (CSNK1G1 (human)) was 100% and the kinase still bound, per cent of control (RPS6KA6 KD2 (human)) was 60%. For the same compound, the kinase still bound, per cent of control (BRSK2 (human)) was 85%, the kinase still bound, per cent of control (TAOK3 (human)) was 67% and the kinase still bound, per cent of control (GSK3A (human)) was 100%. It also gave a kinase still bound, per cent of control (SRPK2 (human)) of 100%, a kinase still bound, per cent of control (TGFBR2 (human)) of 98% and a kinase still bound, per cent of control (PDGFRB (human)) of 98%. It also gave a kinase still bound, per cent of control (ACVR1 (human)) of 100%, a kinase still bound, per cent of control [3] of 92% and a kinase still bound, per cent of control (TTK (human)) of 95%. For the same compound, the kinase still bound, per cent of control (STK33 (human)) was 58%, the kinase still bound, per cent of control (MAP4K2 (human)) was 100% and the kinase still bound, per cent of control (PIM2 (human)) was 100%. For the same compound, the kinase still bound, per cent of control (BMPR1B (human)) was 100%, the kinase still bound, per cent of control [4] was 86% and the kinase still bound, per cent of control (CSNK1D (human)) was 76%. For the same compound, the kinase still bound, per cent of control (SRPK3 (human)) was 68%, the kinase still bound, per cent of control [5] was 92% and the kinase still bound, per cent of control (TNK1 (human)) was 4.9%. It also gave a kinase still bound, per cent of control (STK11 (human)) of 100%, a kinase still bound, per cent of control (PLK4 (human)) of 67% and a kinase still bound, per cent of control (CSNK1G3 (human)) of 98%. It also gave a kinase still bound, per cent of control (MAPK8 (human)) of 86%, a kinase still bound, per cent of control (DMPK (human)) of 100% and a kinase still bound, per cent of control (MYLK3 (human)) of 100%.
